Paper PMC9974930 (Journal of medicinal chemistry, 2023)

molecular target: T1, recombinant human sEH (HsEH) (Homo sapiens, UniProt P34913); test: biochemical; details: not given
T1 sequence (P34913 1-555): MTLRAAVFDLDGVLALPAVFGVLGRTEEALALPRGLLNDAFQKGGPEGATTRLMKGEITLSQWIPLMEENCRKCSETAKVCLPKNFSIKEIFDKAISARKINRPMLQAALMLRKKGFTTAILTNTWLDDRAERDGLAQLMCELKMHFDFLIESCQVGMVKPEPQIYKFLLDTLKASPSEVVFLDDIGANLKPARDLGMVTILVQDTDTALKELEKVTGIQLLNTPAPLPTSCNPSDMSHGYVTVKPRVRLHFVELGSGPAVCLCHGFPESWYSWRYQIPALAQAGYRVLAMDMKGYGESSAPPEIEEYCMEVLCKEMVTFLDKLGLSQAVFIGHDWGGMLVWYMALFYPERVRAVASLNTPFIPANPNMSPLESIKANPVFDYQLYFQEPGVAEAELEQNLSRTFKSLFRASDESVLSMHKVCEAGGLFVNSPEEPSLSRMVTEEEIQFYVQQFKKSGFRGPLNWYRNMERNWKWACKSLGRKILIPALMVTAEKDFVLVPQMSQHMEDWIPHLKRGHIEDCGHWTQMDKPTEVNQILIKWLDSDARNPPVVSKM

Compound	IC50 [nM]
CCC(=O)N1CCC(CC(=O)N2CCCN(Cc3ccc(NC(=O)N[C@@]45C[C@@H]6C[C@@](C)(C[C@@](C)(C6)C4)C5)c(F)c3)CC2)CC1 [I2, 1-((1r,3R,5S,7r)-3,5-Dimethyladamantan-1-yl)-3-(2-fluoro-4-((4-(2-(1-propionylpiperidin-4-yl)acetyl)-1,4-diazepan-1-yl)methyl)phenyl)urea]	0.35
C[C@]12C[C@@H]3C[C@](C)(C1)C[C@@](NC(=O)Nc1ccc(C(=O)N4CCCC(C(=O)O)C4)cc1F)(C3)C2 (stereo partly drawn) [A, 1-(4-(3-((1r,3R,5S,7r)-3,5-Dimethyladamantan-1-yl)ureido)-3-fluorobenzoyl)piperidine-3-carboxylic acid]	4

same assay, conditions: LLE = pIC50-cLogP

Compound	LLE (ligand lipophilicity efficiency)
C[C@]12C[C@@H]3C[C@](C)(C1)C[C@](NC(=O)Nc1ccc(C(=O)N4CCCC(C(=O)NCCO)C4)cc1F)(C3)C2 (stereo partly drawn) [B2, 1-(4-(3-((1r,3R,5S,7S)-3,5-dimethyladamantan-1-yl)ureido)-3-fluorobenzoyl)-N-(2-hydroxyethyl)piperidine-3-carboxamide]	7.069
C[C@]12C[C@@H]3C[C@](C)(C1)C[C@@](NC(=O)Nc1ccc(CN4CCCC(C(=O)N5CCN(CCO)CC5)C4)cc1F)(C3)C2 (stereo partly drawn) [D9, 1-((1r,3R,5S,7r)-3,5-Dimethyladamantan-1-yl)-3-(2-fluoro-4-((3-(4-(2-hydroxyethyl)piperazine-1-carbonyl)piperidin-1-yl)methyl)phenyl)urea]	5.790
CCC(=O)N1CCC(CC(=O)N2CCCN(Cc3ccc(NC(=O)N[C@@]45C[C@@H]6C[C@@](C)(C[C@@](C)(C6)C4)C5)c(F)c3)CC2)CC1 [I2, 1-((1r,3R,5S,7r)-3,5-Dimethyladamantan-1-yl)-3-(2-fluoro-4-((4-(2-(1-propionylpiperidin-4-yl)acetyl)-1,4-diazepan-1-yl)methyl)phenyl)urea]	5.623
C[C@]12C[C@@H]3C[C@](C)(C1)C[C@@](NC(=O)Nc1ccc(C(=O)NC4CCC(C(=O)N5CCC(CCO)CC5)CC4)cc1F)(C3)C2 (stereo partly drawn) [C2, 4-(3-((1r,3R,5S,7r)-3,5-Dimethyladamantan-1-yl)ureido)-3-fluoro-N-(4-(4-(2-hydroxyethyl)piperidine-1-carbonyl)cyclohexyl)benzamide]	3.655
C[C@]12C[C@@H]3C[C@](C)(C1)C[C@@](NC(=O)Nc1ccc(C(=O)N4CCCC(C(=O)N5CCN(CCO)CC5)C4)cc1F)(C3)C2 (stereo partly drawn) [B4, 1-((1r,3R,5S,7r)-3,5-Dimethyladamantan-1-yl)-3-(2-fluoro-4-(3-(4-(2-hydroxyethyl)piperazine-1-carbonyl)piperidine-1-carbonyl)phenyl)urea]	6.516
C[C@]12C[C@@H]3C[C@](C)(C1)C[C@@](NC(=O)Nc1ccc(C(=O)NC4CCC(C(=O)NC(CO)CO)CC4)cc1F)(C3)C2 (stereo partly drawn) [C7, N-(4-((1,3-Dihydroxypropan-2-yl)carbamoyl)cyclohexyl)-4-(3-((1r,3R,5S,7r)-3,5-dimethyladamantan-1-yl)ureido)-3-fluorobenzamide]	6.555
CCN(CC)C(=O)C1CCCN(Cc2ccc(NC(=O)N[C@@]34C[C@@H]5C[C@@](C)(C[C@@](C)(C5)C3)C4)c(F)c2)C1 (stereo partly drawn) [D3, 1-(4-(3-((1r,3R,5S,7r)-3,5-Dimethyladamantan-1-yl)ureido)-3-fluorobenzyl)-N,N-diethylpiperidine-3-carboxamide]	4.957
CCC(=O)N1CCC(CC(=O)N2CCCN(C(=O)c3ccc(NC(=O)N[C@@]45C[C@@H]6C[C@@](C)(C[C@@](C)(C6)C4)C5)c(F)c3)CC2)CC1 [H1, 1-((1r,3R,5S,7r)-3,5-Dimethyladamantan-1-yl)-3-(2-fluoro-4-(4-(2-(1-propionylpiperidin-4-yl)acetyl)-1,4-diazepane-1-carbonyl)phenyl)urea]	5.848
CCC(=O)N1CCCN(C(=O)C2CCCN(C(=O)c3ccc(NC(=O)N[C@@]45C[C@@H]6C[C@@](C)(C[C@@](C)(C6)C4)C5)c(F)c3)C2)CC1 (stereo partly drawn) [F2, 1-((1r,3R,5S,7r)-3,5-Dimethyladamantan-1-yl)-3-(2-fluoro-4-(3-(4-propionyl-1,4-diazepane-1-carbonyl)piperidine-1-carbonyl)phenyl)urea]	6.164
C=C(C)C(=O)N1CCCN(C(=O)C2CCCN(Cc3ccc(NC(=O)N[C@@]45C[C@@H]6C[C@@](C)(C[C@@](C)(C6)C4)C5)c(F)c3)C2)CC1 (stereo partly drawn) [G4, 1-((1r,3R,5S,7r)-3,5-Dimethyladamantan-1-yl)-3-(2-fluoro-4-((3-(4-methacryloyl-1,4-diazepane-1-carbonyl)piperidin-1-yl)methyl)phenyl)urea]	4.821
C[C@]12C[C@@H]3C[C@](C)(C1)C[C@@](NC(=O)Nc1ccc(CN4CCC(C(N)=O)CC4)cc1F)(C3)C2 [E1, 1-(4-(3-((1r,7r)-3,5-Dimethyladamantan-1-yl)ureido)-3-fluorobenzyl)piperidine-4-carboxamide]	5.557
C[C@]12C[C@@H]3C[C@](C)(C1)C[C@@](NC(=O)Nc1ccc(CN4CCC(C(=O)N(CCO)CCO)CC4)cc1F)(C3)C2 [E5, 1-(4-(3-((1r,7r)-3,5-Dimethyladamantan-1-yl)ureido)-3-fluorobenzyl)-N,N-bis(2-hydroxyethyl)piperidine-4-carboxamide]	5.585
COC(=O)N1CCC(CC(=O)N2CCCN(Cc3ccc(NC(=O)N[C@@]45C[C@@H]6C[C@@](C)(C[C@@](C)(C6)C4)C5)c(F)c3)CC2)CC1 [I4, Methyl-4-(2-(4-(4-(3-((1r,3R,5S,7r)-3,5-dimethyladamantan-1-yl)ureido)-3-fluorobenzyl)-1,4-diazepan-1-yl)-2-oxoethyl)piperidine-1-carboxylate]	5.125
CCN(CC)CCN1CCC(CC(=O)N2CCCN(Cc3ccc(NC(=O)N[C@@]45C[C@@H]6C[C@@](C)(C[C@@](C)(C6)C4)C5)c(F)c3)CC2)CC1 [I8, 1-(4-((4-(2-(1-(2-(Diethylamino)ethyl)piperidin-4-yl)acetyl)-1,4-diazepan-1-yl)methyl) −2-fluorophenyl)-3-((1r,3R,5S,7r)-3,5-dimethyladamantan-1-yl)urea]	3.910
CC(=O)N1CCC(CC(=O)N2CCCN(Cc3ccc(NC(=O)N[C@@]45C[C@@H]6C[C@@](C)(C[C@@](C)(C6)C4)C5)c(F)c3)CC2)CC1 [I1, 1-(4-((4-(2-(1-Acetylpiperidin-4-yl)acetyl)-1,4-diazepan-1-yl)methyl)-2-fluorophenyl)-3-((1r,3R,5S,7r)-3,5-dimethyladamantan-1-yl)urea]	6.119
C[C@]12C[C@@H]3C[C@](C)(C1)C[C@@](NC(=O)Nc1ccc(C(=O)NC4CCC(C(=O)NCCO)CC4)cc1F)(C3)C2 (stereo partly drawn) [C3, 4-(3-((1r,3R,5S,7r)-3,5-Dimethyladamantan-1-yl)ureido)-3-fluoro-N-(4-((2-hydroxyethyl)carbamoyl)cyclohexyl)benzamide]	6.100
CCN(CC)C(=O)C1CCN(C(=O)c2ccc(NC(=O)N[C@@]34C[C@@H]5C[C@@](C)(C[C@@](C)(C5)C3)C4)c(F)c2)CC1 [A1, 1-(4-(3-((1r,3R,5S,7r)-3,5-Dimethyladamantan-1-yl)ureido)-3-fluorobenzoyl)-N,N-diethylpiperidine-4-carboxamide]	4.954
CN(C)CCN1CCC(CC(=O)N2CCCN(Cc3ccc(NC(=O)N[C@@]45C[C@@H]6C[C@@](C)(C[C@@](C)(C6)C4)C5)c(F)c3)CC2)CC1 [I7, 1-((1r,3R,5S,7r)-3,5-Dimethyladamantan-1-yl)-3-(4-((4-(2-(1-(2-(dimethylamino)ethyl)piperidin-4-yl)acetyl)-1,4-diazepan-1-yl)methyl)-2-fluorophenyl)urea]	4.517
CCC(C)C(=O)N1CCCN(C(=O)C2CCCN(C(=O)c3ccc(NC(=O)N[C@@]45C[C@@H]6C[C@@](C)(C[C@@](C)(C6)C4)C5)c(F)c3)C2)CC1 (stereo partly drawn) [F3, 1-((1r,3R,5S,7r)-3,5-Dimethyladamantan-1-yl)-3-(2-fluoro-4-(3-(4-(2-methylbutanoyl) −1,4-diazepane-1-carbonyl)piperidine-1-carbonyl)phenyl)urea]	4.847
C[C@]12C[C@@H]3C[C@](C)(C1)C[C@@](NC(=O)Nc1ccc(C(=O)N4CCCC(C(=O)O)C4)cc1F)(C3)C2 (stereo partly drawn) [A, 1-(4-(3-((1r,3R,5S,7r)-3,5-Dimethyladamantan-1-yl)ureido)-3-fluorobenzoyl)piperidine-3-carboxylic acid]	4.979
CCC(C)C(=O)N1CCC(CC(=O)N2CCCN(Cc3ccc(NC(=O)N[C@@]45C[C@@H]6C[C@@](C)(C[C@@](C)(C6)C4)C5)c(F)c3)CC2)CC1 (stereo partly drawn) [I3, 1-((1r,3R,5S,7r)-3,5-Dimethyladamantan-1-yl)-3-(2-fluoro-4-((4-(2-(1-(2-methylbutanoyl)piperidin-4-yl)acetyl)-1,4-diazepan-1-yl)methyl)phenyl)urea]	4.337
C=CC(=O)N1CCCN(C(=O)C2CCCN(Cc3ccc(NC(=O)N[C@@]45C[C@@H]6C[C@@](C)(C[C@@](C)(C6)C4)C5)c(F)c3)C2)CC1 (stereo partly drawn) [G3, 1-(4-((3-(4-acryloyl-1,4-Diazepane-1-carbonyl)piperidin-1-yl)methyl)-2-fluorophenyl) −3-((1r,3R,5S,7r)-3,5-dimethyladamantan-1-yl)urea]	5.598

system: CFA-induced AIA mice; test: CFA-induced arthritis; type: in vivo, Kunming mice; details: 10 mg / kg ip

Compound	reduced foot swelling, thickness [%]	reduced foot swelling, width [%]
Cc1ccc(-c2cc(C(F)(F)F)nn2-c2ccc(S(N)(=O)=O)cc2)cc1 [celecoxib, reference compound]	17.99	6.4

same assay, conditions: 10 mg / kg ip, 24 h of drug treatment

Compound	body weight change
Cc1ccc(-c2cc(C(F)(F)F)nn2-c2ccc(S(N)(=O)=O)cc2)cc1 [celecoxib, reference compound]	increase in body weight

same assay, conditions: 10 mg / kg ip, hot plate

Compound	effect on pain threshold, in words
Cc1ccc(-c2cc(C(F)(F)F)nn2-c2ccc(S(N)(=O)=O)cc2)cc1 [celecoxib, reference compound]	did not significantly raise the pain threshold at 2 h
